Data from patent US20240246955A1, “TROPOMYOSIN RECEPTOR KINASE (TRK) DEGRADATION COMPOUNDS AND METHODS OF USE” (CULLGEN (SHANGHAI), INC., priority 2021, published 2024).

Columns and labels:
Format in all cases: cell-based
KM12 cells = assay: KM12 cell viability assay (CellTiter-Glo); settings: Homo sapiens, 72 h; KM12 cells, 3 days, CellTiter-Glo
Description: The kinase activity of TRK is known to play important roles in tumors expressing TRK-fusion proteins, as TRK kinase inhibitors compromise cell proliferation, survival, and induce marked clinical responses (Amatu et al., 2016; Drilon et al., 2018; Drilon et al., 2017; Khotskaya et al., 2017). KM12 cells seeded in 96-well plates were treated with heterobifunctional compounds following a 11-point 3-fold serial dilution. Three days after treatment, cell viability was determined using the CellTiter-Glo kit, and normalized to the mean values of 3 replicates of untreated cells. Dose-dependent response was analyzed following the least-squares non-linear regression method using the GraphPad Prism software. Each data point in the figure represents the mean values of three technical replicates ±standard deviation.
KM12 cells seeded in 96-well plates were treated with heterobifunctional compounds following a 11-point 3-fold serial dilution for 3 days.
(§1) KM12, TRKA G595R mutated KM12, HEL, and other cells were cultured at 37° C. with 5% CO2 in DMEM or RPMI 1640 Medium supplemented with 10% fetal bovine serum. Cells were authenticated using the short tandem repeat (STR) assays. Mycoplasma test results were negative.
(§2) Cells were seeded at a density of 5000 cells per well in 96-well assay plates and treated with test compounds following a 11-point 3-fold serial dilution. Three days later, cell viability was determined using the CellTiter-Glo assay kit (Promega) according to the manufacturer's instructions. The dose-response curves were determined and IC50 values were calculated using the GraphPad Prism software following a nonlinear regression (least squares fit) method.

TPM3-TRKA fusion protein = target: T1, TPM3-TRKA fusion protein (Homo sapiens, UniProt P04629); assay: TPM3-TRKA degradation in KM12 cells (Western blot); settings: 16 hours, TRK protein, immunoblot; for inhibition at 0.1 µM: 100 nM; for inhibition at 0.01 µM: 10 nM
T1 construct: TPM3 (N-terminal part of tropomyosin alpha-3, natural fusion partner); endogenous in cells; host or cells: KM12 colon cancer cells; the other entry of the earlier key: TPM3 (P06753, Tropomyosin alpha-3 chain)
Description: Specific exemplary heterobifunctional compounds were characterized in KM12 cells. KM12 cells that express TPM3-TRKA fusion protein were treated with 10 nM or 100 nM heterobifunctional compounds disclosed herein or their corresponding warheads/inhibitors for 16 hours. Cells were collected, lysed and subject to immunoblotting using an antibody specific to TRK proteins.
KM12 cells were treated with heterobifunctional compounds at 10 nM or 100 nM for 16 hours.
Cultured cells were washed with cold PBS once and lysed in cold RIPA buffer supplemented with protease inhibitors and phosphatase inhibitors (Beyotime Biotechnology). The solutions were then incubated at 4° C. for 30 minutes with gentle agitation to fully lyse cells. Cell lysates were centrifuged at 13,000 rpm for 10 minutes at 4° C. and pellets were discarded. Total protein concentrations in the lysates were determined by BCA assays (Beyotime Biotechnology). Cell lysates were mixed with Laemmli loading buffer to 1× and heated at 99° C. for 5 min. Proteins were resolved on SDS-PAGE and visualized by chemiluminescence. Images were taken by a ChemiDoc MP Imaging system (Bio-Rad). Protein bands were quantitated using the software provided by Bio-Rad.
The percentage of TRK protein degradation of each compound at 10 nM and 100 nM was determined in KM12 cells as described in Methods. The percentage of degradation of each compound was indicated in the following categories: N/A: data not available; −: no degradation; +: degradation less than 50%; ++: degradation equal or greater than 50% but less than […]; +++: degradation equal or greater than 80%.

[1] = test system: TRKA G595R mutated KM12 cells; assay: Cell viability assay in TRKA G595R mutated KM12 cells (CellTiter-Glo); settings: Homo sapiens, 72 h, 3 days
Description: as §1, §2
The activities of selected compounds on cell viability (IC50 values) and TMP3-TRKA degradation (percentage degradation at 10 nM) in KM12 cells or KM12-G595R mutated KM12 cells (KM12-G595R) are listed in Table 2.

T1 sequence (P04629 with tags, fused parts or gaps): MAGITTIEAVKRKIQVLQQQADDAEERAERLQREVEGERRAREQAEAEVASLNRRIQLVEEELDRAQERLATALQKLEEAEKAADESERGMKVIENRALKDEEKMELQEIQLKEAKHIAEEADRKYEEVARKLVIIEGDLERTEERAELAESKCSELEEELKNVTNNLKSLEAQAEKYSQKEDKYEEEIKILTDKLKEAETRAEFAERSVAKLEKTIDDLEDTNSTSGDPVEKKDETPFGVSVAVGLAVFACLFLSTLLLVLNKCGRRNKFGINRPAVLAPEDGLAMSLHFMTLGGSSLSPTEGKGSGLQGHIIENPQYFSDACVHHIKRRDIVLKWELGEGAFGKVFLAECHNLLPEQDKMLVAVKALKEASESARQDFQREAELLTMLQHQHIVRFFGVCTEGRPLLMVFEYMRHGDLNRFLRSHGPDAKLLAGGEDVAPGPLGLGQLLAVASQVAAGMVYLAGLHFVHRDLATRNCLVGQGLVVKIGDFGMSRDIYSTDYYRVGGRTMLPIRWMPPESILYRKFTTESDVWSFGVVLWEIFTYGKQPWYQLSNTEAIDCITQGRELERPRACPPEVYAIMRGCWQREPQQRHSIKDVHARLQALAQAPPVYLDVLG

| inhibition at 0.1 µM (TPM3-TRKA fusion protein) [%] | inhibition at 0.01 µM (TPM3-TRKA fusion protein) [%] | SMILES | IC50 (KM12 cells) [nM] | IC50 [1] [nM] |
| --- | --- | --- | --- | --- |
| 50 to 800 | < 50 | COCCN1C[C@@H](NC(=O)Nc2c(C)c(-c3cnc(N4CCN(C(=O)CCc5cccc6c5C(=O)N(C5CCC(=O)NC5=O)C6=O)CC4)nc3)nn2-c2ccccc2)[C@H](c2cccc(F)c2)C1 (stereo partly drawn) [CPD-025, 1-(3-(2-(4-(3-(2-(2,6-dioxopiperidin-3-yl)-1,3-dioxoisoindolin-4-yl)propanoyl)piperazin-1-yl)pyrimidin-5-yl)-4-methyl-1-phenyl-1H-pyrazol-5-yl)-3-((3S,4R)-4-(3-fluorophenyl)-1-(2-methoxyethyl)pyrrolidin-3-yl)urea] | 30 | 158 |
| 50 to 800 | 50 to 800 | COCCN1C[C@@H](NC(=O)Nc2c(C)c(-c3cnc(N4CCN(CCOc5cccc6c5C(=O)N(C5CCC(=O)NC5=O)C6=O)CC4)nc3)nn2-c2ccccc2)[C@H](c2cccc(F)c2)C1 (stereo partly drawn) [CPD-027, 1-(3-(2-(4-(2-((2-(2,6-dioxopiperidin-3-yl)-1,3-dioxoisoindolin-4-yl)oxy)ethyl)piperazin-1-yl)pyrimidin-5-yl)-4-methyl-1-phenyl-1H-pyrazol-5-yl)-3-((3S,4R)-4-(3-fluorophenyl)-1-(2-methoxyethyl)pyrrolidin-3-yl)urea] | 3.13 | 4.47 |
| 50 to 800 | < 50 | COCCN1C[C@@H](NC(=O)Nc2c(C)c(-c3cnc(N4CCN(CCCc5cccc6c5C(=O)N(C5CCC(=O)NC5=O)C6=O)CC4)nc3)nn2-c2ccccc2)[C@H](c2cccc(F)c2)C1 (stereo partly drawn) [CPD-029, 1-(3-(2-(4-(3-(2-(2,6-dioxopiperidin-3-yl)-1,3-dioxoisoindolin-4-yl)propyl)piperazin-1-yl)pyrimidin-5-yl)-4-methyl-1-phenyl-1H-pyrazol-5-yl)-3-((3S,4R)-4-(3-fluorophenyl)-1-(2-methoxyethyl)pyrrolidin-3-yl)urea] | 13.4 | 277 |
| 50 to 800 | 50 to 800 | COCCN1C[C@@H](NC(=O)Nc2c(C)c(-c3cnc(N4CCN(CCNc5cccc6c5C(=O)N(C5CCC(=O)NC5=O)C6=O)CC4)nc3)nn2-c2ccccc2)[C@H](c2cccc(F)c2)C1 (stereo partly drawn) [CPD-030, 1-(3-(2-(4-(2-((2-(2,6-dioxopiperidin-3-yl)-1,3-dioxoisoindolin-4-yl)amino)ethyl)piperazin-1-yl)pyrimidin-5-yl)-4-methyl-1-phenyl-1H-pyrazol-5-yl)-3-((3S,4R)-4-(3-fluorophenyl)-1-(2-methoxyethyl)pyrrolidin-3-yl)urea] | 1.09 | 5.13 |
| > 80 | > 80 | COCCN1C[C@@H](NC(=O)Nc2c(C)c(-c3cnc(N4CCN(CCCc5ccc6c(c5)C(=O)N(C5CCC(=O)NC5=O)C6=O)CC4)nc3)nn2-c2ccccc2)[C@H](c2cccc(F)c2)C1 (stereo partly drawn) [CPD-032, 1-(3-(2-(4-(3-(2-(2,6-dioxopiperidin-3-yl)-1,3-dioxoisoindolin-5-yl)propyl)piperazin-1-yl)pyrimidin-5-yl)-4-methyl-1-phenyl-1H-pyrazol-5-yl)-3-((3S,4R)-4-(3-fluorophenyl)-1-(2-methoxyethyl)pyrrolidin-3-yl)urea] | 13.7 | 18.2 |
| 50 to 800 | 50 to 800 | COCCN1C[C@@H](NC(=O)Nc2c(C)c(-c3cnc(N4CCN(CCc5ccc6c(c5)C(=O)N(C5CCC(=O)NC5=O)C6=O)CC4)nc3)nn2-c2ccccc2)[C@H](c2cccc(F)c2)C1 (stereo partly drawn) [CPD-033, 1-(3-(2-(4-(2-(2-(2,6-dioxopiperidin-3-yl)-1,3-dioxoisoindolin-5-yl)ethyl)piperazin-1-yl)pyrimidin-5-yl)-4-methyl-1-phenyl-1H-pyrazol-5-yl)-3-((3S,4R)-4-(3-fluorophenyl)-1-(2-methoxyethyl)pyrrolidin-3-yl)urea] | 14.4 | 94.6 |

The next lines start with the compound.

| SMILES | inhibition at 0.1 µM (TPM3-TRKA fusion protein) [%] | inhibition at 0.01 µM (TPM3-TRKA fusion protein) [%] | IC50 (KM12 cells) [nM] | IC50 [1] [nM] |
| --- | --- | --- | --- | --- |
| COCCN1C[C@@H](NC(=O)Nc2c(C)c(-c3cnc(N4CCN(C(=O)CCCCCOc5cc(-c6scnc6C)ccc5CNC(=O)[C@@H]5C[C@@H](O)CN5C(=O)[C@@H](NC(=O)C5(F)CC5)C(C)(C)C)CC4)nc3)nn2-c2ccccc2)[C@H](c2cccc(F)c2)C1 [CPD-020, (2S,4R)-1-((S)-2-(1-fluorocyclopropane-1-carboxamido)-3,3-dimethylbutanoyl)-N-(2-((6-(4-(5-(5-(3-((3S,4R)-4-(3-fluorophenyl)-1-(2-methoxyethyl)pyrrolidin-3-yl)ureido)-4-methyl-1-phenyl-1H-pyrazol-3-yl)pyrimidin-2-yl)piperazin-1-yl)-6-oxohexyl)oxy)-4-(4-methylthiazol-5-yl)benzyl)-4-hydroxypyrrolidine-2-carboxamide] | 50 to 800 |  | 293 |  |
| COCCN1C[C@@H](NC(=O)Nc2c(C)c(-c3cnc(N4CCN(C(=O)COc5ccc6c(c5)C(=O)N(C5CCC(=O)NC5=O)C6=O)CC4)nc3)nn2-c2ccccc2)[C@H](c2cccc(F)c2)C1 (stereo partly drawn) [CPD-023, 1-(3-(2-(4-(2-((2-(2,6-dioxopiperidin-3-yl)-1,3-dioxoisoindolin-5-yl)oxy)acetyl)piperazin-1-yl)pyrimidin-5-yl)-4-methyl-1-phenyl-1H-pyrazol-5-yl)-3-((3S,4R)-4-(3-fluorophenyl)-1-(2-methoxyethyl)pyrrolidin-3-yl)urea] | > 80 | > 80 | 6.46 | 44 |
| COCCN1C[C@@H](NC(=O)Nc2c(C)c(-c3cnc(N4CCN(C(=O)COc5cccc6c5C(=O)N(C5CCC(=O)NC5=O)C6=O)CC4)nc3)nn2-c2ccccc2)[C@H](c2cccc(F)c2)C1 (stereo partly drawn) [CPD-024, 1-(3-(2-(4-(2-((2-(2,6-dioxopiperidin-3-yl)-1,3-dioxoisoindolin-4-yl)oxy)acetyl)piperazin-1-yl)pyrimidin-5-yl)-4-methyl-1-phenyl-1H-pyrazol-5-yl)-3-((3S,4R)-4-(3-fluorophenyl)-1-(2-methoxyethyl)pyrrolidin-3-yl)urea] | 50 to 800 | < 50 | 86.9 | 314 |
| COCCN1C[C@@H](NC(=O)Nc2c(C)c(-c3cnc(N4CCN(C(=O)CCc5ccc6c(c5)C(=O)N(C5CCC(=O)NC5=O)C6=O)CC4)nc3)nn2-c2ccccc2)[C@H](c2cccc(F)c2)C1 (stereo partly drawn) [CPD-026, 1-(3-(2-(4-(3-(2-(2,6-dioxopiperidin-3-yl)-1,3-dioxoisoindolin-5-yl)propanoyl)piperazin-1-yl)pyrimidin-5-yl)-4-methyl-1-phenyl-1H-pyrazol-5-yl)-3-((3S,4R)-4-(3-fluorophenyl)-1-(2-methoxyethyl)pyrrolidin-3-yl)urea] | > 80 | > 80 | 42.1 | 301 |
| COCCN1C[C@@H](NC(=O)Nc2c(C)c(-c3cnc(N4CCN(CCOc5ccc6c(c5)C(=O)N(C5CCC(=O)NC5=O)C6=O)CC4)nc3)nn2-c2ccccc2)[C@H](c2cccc(F)c2)C1 (stereo partly drawn) [CPD-028, 1-(3-(2-(4-(2-((2-(2,6-dioxopiperidin-3-yl)-1,3-dioxoisoindolin-5-yl)oxy)ethyl)piperazin-1-yl)pyrimidin-5-yl)-4-methyl-1-phenyl-1H-pyrazol-5-yl)-3-((3S,4R)-4-(3-fluorophenyl)-1-(2-methoxyethyl)pyrrolidin-3-yl)urea] | 50 to 800 | > 80 | 4.1 | 30.4 |
